Experimental data taken from patent US20200378993A1, “MEDICAL USES OF APOLIPOPROTEIN A AND ACTIVATORS THEREOF” (FUNDACIÓN IMDEA ALIMENTACIÓN, priority 2017, published 2020).

Tests used:
Assay type in all cases: cell-based, human
[1] = tested on: cholesterol flux; assay: Cholesterol flux in treated cells; details: treatment with Rvx-208
Method: FIG. 7. A) Proliferation curve in a viability assay carried out by means of XCELLigence technology. Growth of DLD1 cells treated with DMSO as the drug carrier and with Rvx-208 (30 μM). The significant differences existing in the slope of the graph, and therefore in the growth dynamics of the treated cells are shown in the right panel (****p-value<0.0001). B) Migration and invasion assays. The method followed was the same as the one described in FIG. 2 (*p-value=0.0407; ****p-value<0.0001). C) Expression levels of proteins E-cadherin and Vimentin in the presence and absence of Rvx-208. Analysis performed by means of quantitative PCR. The relative expression levels normalized with respect to the untreated control are shown. D) ABCA1, ApoA1, caveolin-1, and α-tubulin immunodetection by means of Western blot. α-tubulin acts as load control. The results of the cells treated with Rvx-208 (30 μM) or with the DMSO carrier are shown. E) Cholesterol flux in cells treated with Rvx-208. The inventors were able to confirm said results based on the treatment of DLD1 cells expressing ABCA1 with RVX-208 under the conditions already described in detail in Example 3. […] The levels of caveolin-1, a protein whose increased levels have been associated with increases in cell migration and invasion, were also analyzed in this experiment.

[2] = tested on: DLD1 cells; assay: Cell viability and proliferation assay (XCELLigence)
Method: (§1) Cell viability and proliferation assays were carried out by means of XCELLigence technology (ACEA Biosciences, Inc.) following the manufacturer's indications. Migration and invasion assays were carried out in Corning® BioCoat™ Control plates (#354578) and Corning® BioCoat™ Matrigel plates (#354480), respectively, following the manufacturer's indications. For the rescue assays, the cells were treated for 72 hours with 30 μM apabetalone (RVX-208; Biovision). Antibodies: ABCA1 (Ab18180, Abcam. 1:500); caveolin-1 (Ab2910, Abcam. 1:1000); α-tubulin (T9026, Sigma 1:1000). The DLD1 cells correspond to a human colorectal cancer-derived adherent epithelial cell line (ATCC® CCL-221™). The stable cell lines capable of overexpressing ABCA1 were obtained by means of transduction with genetically modified lentivirus.
(§2) Following the same treatment regimen, the inventors carried out migration and invasion assays.
(§3) The same assays were repeated by replacing ApoA1 with a treatment with RVX-208. In this case, DLD1 cells were pre-treated for 72 hours before the start of the experiment with RVX-208 at a concentration of 30 μm and were subjected to a treatment with 15 μM of RVX-208 during the development of the experiments.
(§4) For the purpose of confirming that the effects of RVX-208 in cell phenotype recovery were due to the increase in ApoA-1 expression, the inventors inhibited the expression of said protein by means of transfection of a complementary small RNA, ShApoA1 (FIG. 9). Twenty-four hours after transfection with ShApoA1 expression vector, the inventors started treatment with 30 μM of RVX-208. Cell viability and proliferation in DLD1 cells (D_NoORF) and D1D1 cell lines expressing increased ApoA1 levels (D_ApoA1 ) were analyzed with the xCELLigence system.

[3] = tested on: DLD1_ABCA1 cells; assay: as above; details: RVX-208 30 μm 72 hours then 15 μM; DLD1 cells overexpressing ABCA1
Method: FIG. 6. A) Proliferation curve in a viability assay carried out by means of XCELLigence technology. The results for the stable cell line overexpressing ABCA1 in the absence and presence of ApoA1 are shown. The cells were treated for 72 hours before the experiment with 40 μg/ml of ApoA1 and with a concentration of 20 μg/ml during acquisition. B) Migration and invasion assays. The method followed was the same as the one described in FIG. 1. (**p-value=0.003; ****p-value<0.0001). C) ABCA1 messenger RNA level (left panel) and ABCA1 protein level (right panel) in the presence and absence of treatment with ApoA1. Results are shown both for the control cells and for those cells overexpressing the transporter.
Cell viability and proliferation assays were carried out by means of XCELLigence technology (ACEA Biosciences, Inc.) following the manufacturer's indications. Migration and invasion assays were carried out in Corning® BioCoat™ Control plates (#354578) and Corning® BioCoat™ Matrigel plates (#354480), respectively, following the manufacturer's indications. […]
The inventors were able to confirm said results based on the treatment of DLD1 cells expressing ABCA1 with RVX-208 under the conditions already described in detail in Example 3. […] The levels of caveolin-1, a protein whose increased levels have been associated with increases in cell migration and invasion, were also analyzed in this experiment.

[4] = tested on: DLD1 cells; assay: Invasion assay (Corning BioCoat Matrigel plates)
Method: as §1, §2, §3, §4

COc1cc(OC)c2c(=O)[nH]c(-c3cc(C)c(OCCO)c(C)c3)nc2c1 [RVX-208, 2-(4-(2-hydroxyethoxy)-3,5-dimethylphenyl)-5,7-dimethoxyquinazolin-4(3H)-one]
cholesterol flux ([1]; cells overexpressing ABCA1): decreases significantly
cholesterol flux ([1]; control cells): decreases significantly
proliferation indices ([2]; 30 μM RVX-208, ApoA1 expression not inhibited (Scr+Rvx-208), DLD1 cells (D_NoORF)): significantly lower
proliferative capacity ([2]; RVX-208 pre-treatment 72 hours at 30 μm, 15 μM during experiment, DLD1 cells): significant decrease in proliferative capacity
proliferative capacity [3]: significant decrease in proliferative capacity
invasive capacity ([4]; RVX-208 30 μm 72 hours then 15 μM, DLD1 cells): significant decreases the migratory and invasive capacity
effectiveness of treatment in terms of a decrease in cell invasion capacities ([4]; Rvx-208 with ApoA1 silenced by shApoA1, control cells): reduces the effectiveness of treatment
